“Also recorded” adds a separate entry of the source. Read-outs that look alike come from different tables or passages of the source.
How the values were obtained:
[1] = target: T1, brain GS (Mus musculus, UniProt P15105); details: 24 h after single i.p.
[2] = target: T1, brain GS; details: i.p. 7 days
[3] = tested on: Wistar rats; assay: Open field task in corticosterone-administered rats; format: in vivo
[4] = tested on: purified sheep brain GS; assay: Purified sheep brain GS activity (Meister's method, gamma-glutamylhydroxamate formation); format: biochemical; details: for effect on GS subunit (monomer) activity: in presence of 2β-ME (DTT for tianeptine)
[5] = tested on: pathogenic mycobacteria; details: cited from earlier work
[6] = target: GS (Rattus norvegicus, UniProt P09606)
Sequence of GS (Rattus norvegicus, UniProt P09606) (P09606 2-373 limits assumed): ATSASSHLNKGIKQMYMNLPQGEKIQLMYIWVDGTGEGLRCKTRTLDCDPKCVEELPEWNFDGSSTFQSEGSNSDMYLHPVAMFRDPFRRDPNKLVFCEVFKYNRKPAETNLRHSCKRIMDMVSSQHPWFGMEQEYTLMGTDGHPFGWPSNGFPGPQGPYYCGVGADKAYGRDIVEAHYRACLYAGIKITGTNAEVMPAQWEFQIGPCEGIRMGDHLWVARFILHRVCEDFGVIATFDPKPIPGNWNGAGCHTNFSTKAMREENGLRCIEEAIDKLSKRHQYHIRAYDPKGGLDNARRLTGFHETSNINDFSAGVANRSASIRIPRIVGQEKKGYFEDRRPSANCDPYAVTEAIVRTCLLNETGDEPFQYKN

[7] = tested on: rat lung GS protein; details: cited from earlier work
[8] = tested on: GS; details: rat, in vivo
[9] = tested on: GS; details: literature (Meister 1985; Eisenberg et al., 2000); cited from earlier work
[10] = Adrenal weight in corticosterone-administered rats; format: in vivo, Wistar rats; details: 21 days, versus PCB
[11] = tested on: M. tuberculosis; details: MS with isoniazid (INH); cited from earlier work
[12] = target: bacterial GS (Mycobacterium tuberculosis, UniProt P9WN39); details: cited from earlier work
Sequence of bacterial GS (P9WN39 whole entry): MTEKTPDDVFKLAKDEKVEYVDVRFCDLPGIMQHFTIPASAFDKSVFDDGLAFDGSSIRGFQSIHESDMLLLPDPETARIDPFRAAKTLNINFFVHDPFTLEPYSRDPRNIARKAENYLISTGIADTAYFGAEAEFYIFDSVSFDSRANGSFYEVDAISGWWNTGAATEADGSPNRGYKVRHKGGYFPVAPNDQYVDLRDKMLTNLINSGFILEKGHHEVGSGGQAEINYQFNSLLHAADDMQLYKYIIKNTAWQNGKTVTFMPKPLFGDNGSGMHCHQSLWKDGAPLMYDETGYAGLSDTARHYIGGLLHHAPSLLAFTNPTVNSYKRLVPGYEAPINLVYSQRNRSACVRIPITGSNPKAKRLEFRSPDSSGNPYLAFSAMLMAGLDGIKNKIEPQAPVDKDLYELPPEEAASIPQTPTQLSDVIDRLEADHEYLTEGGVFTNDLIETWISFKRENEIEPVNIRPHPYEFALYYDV

[13] = tested on: glucocorticoid receptor (GR); assay: Brain glucocorticoid receptor expression by ELISA in corticosterone-administered rats; format: in vivo, Wistar rats
[14] = tested on: CA3 pyramidal neurons; assay: Surface of CA3 pyramidal neurons (Golgi) in corticosterone-administered rats; format: in vivo, Wistar rats; details: 21 days
[15] = tested on: Wistar rats; assay: Forced swimming test in corticosterone-administered rats; format: in vivo; details: day 19, corticosterone 35 mg/kg s.c.; versus PCB and Control
[16] = tested on: purified sheep brain GS; details: Rueppel et al., 1972; cited from earlier work
[17] = 21 days, versus PCB and Control

T1 sequence (P15105 2-373 limits assumed): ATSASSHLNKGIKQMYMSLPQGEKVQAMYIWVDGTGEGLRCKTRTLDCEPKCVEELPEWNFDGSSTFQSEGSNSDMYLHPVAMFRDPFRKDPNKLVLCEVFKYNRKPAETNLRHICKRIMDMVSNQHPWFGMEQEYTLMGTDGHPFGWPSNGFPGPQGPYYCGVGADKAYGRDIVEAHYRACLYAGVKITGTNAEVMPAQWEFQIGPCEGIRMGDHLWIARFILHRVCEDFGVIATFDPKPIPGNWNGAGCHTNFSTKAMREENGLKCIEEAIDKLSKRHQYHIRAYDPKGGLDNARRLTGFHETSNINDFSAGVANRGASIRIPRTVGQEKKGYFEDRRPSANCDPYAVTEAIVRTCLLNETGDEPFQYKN

CS(=N)(=O)CC[C@H](N)C(=O)O (stereo partly shown) [MS, 2-amino-4-(S-methylsulfonimidosyl)butanoic acid]
dose relation of effects on GS activity and GS expression [1]: dose-dependent | dose with the highest GS activity [1]: 0.312 mg/kg | whole brain GS activity ([1]; 0.078-20 mg/kg): increase GS activity | whole brain GS activity ([2]; MS 0.5, 15, 45 mg/kg): decreased GS activity proportionally the dose | dose relation of effects on GS activity and GS expression [2]: dose-dependent | dose relation of the increase in resting time ([3]; day 15): proportional to the dose | resting time in the open field task ([3]; day 15, corticosterone 35 mg/kg s.c., versus PCB and Control): higher | type of competition [4]: competitive with L-glutamine | effect on GS subunit (monomer) activity [4]: inhibit GS activity at “high” concentrations | effect on mycobacterium growth [5]: block the growth | lung GS activity ([6]; 21 days, most rats, versus PCB): decrease in lung GS activity | brain GS activity [6, 17]: dose-dependent decrease | liver GS activity [6, 17]: clear decrease | brain GS activity ([6]; MS at the and 45 mg/kg doses): lowest GS activities | augmentation of rat lung GS protein levels ([7]; MS 100 mg/kg): 4 fold | augmentation of rat lung GS protein levels ([7]; combination MS 100 mg/kg and dexamethasone 0.5 mg/kg): 12 fold | brain GS expression [8]: higher | nature of the binding to GS [9]: non-selective, irreversible GS ligand; also recorded: bind GS irreversibly | adrenal weight [10]: higher | reduction of CFU in guinea pig organs below the level attained with INH alone [11]: ~1.5 log units | greater sensitivity to MS of bacterial GS than of mammalian GS [12]: 100 fold | brain GR expression ([13]; GF 0.1 and 3 mg/kg, MS 0.5, 15 and 45 mg/kg, tianeptine 0.5 mg/kg, versus PCB): higher | dose relation of the increase in GR expression ([13]; rat, in vivo): proportional to the dose | dose with the best protective effects on CA3 pyramidal neurons [14]: 15 mg/kg | immobility in the forced swimming test [15]: comparable or lower

CC(C)NNC(=O)c1ccncc1 [iproniazid, Iproniazid]
tested on GS activity: ligand or not [4]: GS ligands | effect on GS subunit (monomer) activity [4]: inhibit GS activity at “high” concentrations | type of competition [16]: competes with hydroxylamine on the NH4 site

— patent US20090209474A1, “NOVEL USES FOR DRUGS TARGETING GLUTAMINE SYNTHETASE” (NEWTHERA, priority 2005, published 2009)
